Where “and” joins values, the source holds several entries; their conditions need not be identical. Equal values may be shown once.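 Results reflect a 48-hour exposure of cells in 96-well plates to compound at five concentrations. GI50 marks 50% less growth. TGI is the concentration that stops growth completely.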
Columns and labels:
Experiment in all cases: NCI tumour cell line growth inhibition, 48 h
DMS 273 small cell lung = tested on: DMS 273 small cell lung
LXFL 529 NSCLC = tested on: LXFL 529 NSCLC
DMS 114 small cell lung = tested on: DMS 114 small cell lung
KM20L2 colon = tested on: KM20L2 colon
XF 498 CNS = tested on: XF 498 CNS
M19-MEL melanoma = tested on: M19-MEL melanoma
HOP-18 NSCLC = tested on: HOP-18 NSCLC
MDA-N = tested on: MDA-N
RXF-631 renal = tested on: RXF-631 renal
P388 leukemia = tested on: P388 leukemia
P388/ADR leukemia = tested on: P388/ADR leukemia

SMILES	TGI (DMS 273 small cell lung)	TGI (LXFL 529 NSCLC) [µM]	TGI (DMS 114 small cell lung) [µM]	TGI (KM20L2 colon)	TGI (XF 498 CNS)	TGI (M19-MEL melanoma)	TGI (HOP-18 NSCLC) [µM]	TGI (MDA-N) [µM]	TGI (RXF-631 renal) [µM]	further results
COC1(OC)CCC2(C)OC(c3ccccc3)C1O2 (stereo not given)	> 100 µM	> 100	> 100	> 100 µM	> 100 µM					
C=C1C2CCCC1C1(S(C)(=O)=O)CCCCC21O (stereo not given)	> 100 µM	> 100	> 100	> 100 µM		> 100 µM	> 100			
Cc1[nH]c(N)nc(=S)c1CCCNc1ccccc1								> 100		
O=C(CC(=O)N1N=C(n2ccc3ccccc32)CC1c1ccccc1)Nc1ccccc1Cl (stereo not given)	> 100 µM	> 100	> 100	> 100 µM		> 100 µM	> 100		> 100	
CC1CN1c1c(C(=O)/C=C/c2ccc(F)cc2)c(-c2ccccc2)nn(C)c1=O (stereo not given)		31.7	31.1	31.6 µM	28.8 µM	27.7 µM	33.2			
Cc1cc(NS(=O)(=O)c2ccc(NC(=O)c3cccc4c(Nc5ccc(S(=O)(=O)Nc6cc(C)on6)cc5)c5ccc(Cl)cc5nc34)cc2)no1	> 100 µM	> 100	> 100	> 100 µM	> 100 µM	> 100 µM	> 100			
CS(=O)(=O)ON1C(=O)c2ccc(N)cc2C1=O	> 100 µM	> 100	> 100	> 100 µM	> 100 µM	> 100 µM	> 100		> 100	
O=C1CCC2(c3ccccc3)OCC([C@@H](O)c3ccccc3)N12 (stereo not given in full)	> 100 µM		> 100	> 100 µM	> 100 µM	> 100 µM	> 100			
CC[C@@]1(O)C(=O)OCc2c1cc1n(c2=O)Cc2cc3cc(O)ccc3nc2-1	0.47 µM and 1.74 µM	1.91		8.14 µM and 4.97 µM	0.183 µM and 0.472 µM	0.589 µM and 1.01 µM	5.2			TGI (P388 leukemia): 1.43 µM; GI50 (DMS 273 small cell lung): 0.0272 µM and 0.0217 µM; GI50 (M19-MEL melanoma): 0.0634 µM; GI50 (KM20L2 colon): 0.186 µM; TGI (P388/ADR leukemia): 1.03 µM; GI50 (XF 498 CNS): 0.0518 µM
Nc1nc(N)c2c(Cl)c(CNc3ccc(Cl)c(Cl)c3)ccc2n1	3.87 µM	12.3	4.85	18.6 µM	7.71 µM	12.5 µM	17.1	17		
C=C(CC)C(=O)c1ccc(OCC(=O)O)c(Cl)c1Cl								> 55.2		
COC(=O)C1C(=O)C(C(=O)OC)C2CCC1N2C (stereo not given)								73.8		
O=c1[nH]c(-c2ccccc2)nc2cc([N+](=O)[O-])c(/C(Cl)=C/c3ccccc3)cc12	> 100 µM	78.4	> 100	> 100 µM		> 100 µM				
Cc1[nH]c2ccccc2c1/C=C/c1c(C)[nH]c2ccccc12	> 100 µM	> 100	> 100	> 100 µM	> 100 µM	> 100 µM				
O=C(CCl)N1CCN(c2ccccc2)CC1								39.9		
CCP(C)(=O)CC	> 100 µM	> 100	> 100	> 100 µM	> 100 µM	> 100 µM	> 100		> 100	
N#CC(Cl)CS(=O)(=O)c1ccccc1 (stereo not given)			9.34	39.4 µM	9.64 µM	29.2 µM	22	20.2		
CCc1nc(N)nc(N)c1-c1ccc(N2CCNCC2)c([N+](=O)[O-])c1								> 100		
CC(C)(C)c1cc(Cc2ccc(S(C)(=O)=O)cc2)c(O)c(C(C)(C)C)c1	27.3 µM	29.2	26.3	29.1 µM	28.7 µM	32.7 µM	37.2			
CC(=O)NNc1nc(C)c(C(=O)/C=C/c2ccc(N(C)C)cc2)s1	> 100 µM		> 100	> 100 µM			> 100		> 100	
CCN(CC)CCN1C(=O)c2c(c3c4cccc(Cl)c4n(C4OC(CO)C(OC)C(O)C4O)c3c3[nH]c4c(Cl)cccc4c23)C1=O (stereo not given)				0.0103 µM	0.284 µM			0.21		GI50 (DMS 273 small cell lung): < 0.0001 µM; GI50 (M19-MEL melanoma): 0.000144 µM; GI50 (LXFL 529 NSCLC): 0.000116 µM; GI50 (DMS 114 small cell lung): < 0.0001 µM; GI50 (HOP-18 NSCLC): 0.102 µM; GI50 (KM20L2 colon): 0.000446 µM

SMILES	TGI (DMS 273 small cell lung)	TGI (LXFL 529 NSCLC) [µM]	TGI (DMS 114 small cell lung) [µM]	TGI (KM20L2 colon)	TGI (XF 498 CNS)	TGI (M19-MEL melanoma)	TGI (HOP-18 NSCLC) [µM]	TGI (MDA-N) [µM]	TGI (RXF-631 renal) [µM]	further results
CN(C)CC1CCCC/C1=N\OC(=O)c1ccccc1 (stereo not given)	> 100 µM	> 100	> 100	> 100 µM	> 100 µM	> 100 µM	> 100		> 100	
CCN1CCCCCCCCCC(=N/O)/C(=N\O)C1								> 100		
COc1ccc(C(=O)C(c2ccc(OC)cc2)C2(O)C(=O)Nc3c(Cl)cc(Cl)cc32)cc1 (stereo not given)	46.8 µM	28.4	42	68 µM	47.2 µM		44.8			
Cc1c(C(=O)/C=C/c2ccc([N+](=O)[O-])cc2)[n+](=O)c2ccccc2n1[O-]	> 100 µM	> 100	> 100	> 100 µM	> 100 µM	> 100 µM	> 100			
[CH3][Ge]([CH3])([CH2]CC#N)[S]c1ccccc1	29.5 µM	27.5		47.9 µM		48 µM	> 100			GI50 (DMS 273 small cell lung): 6.1 µM; GI50 (M19-MEL melanoma): 16 µM; GI50 (LXFL 529 NSCLC): 13.5 µM; GI50 (HOP-18 NSCLC): > 100 µM; GI50 (KM20L2 colon): 21.6 µM
COc1ccc(/C=C/C(=O)OC2CC34CCNC35CC(OC5(OC)C2OC)c2ccc(OC)c(O)c24)cc1O (stereo not given)								> 100		
O=C1NC(c2cccc3ccccc23)Nc2ccc(Cl)cc21 (stereo not given)								0.000218		
C/C(=C\CNc1ncnc2c1ncn2C1CCCCO1)COP(=O)(O)O (stereo not given)	> 100 µM	> 100	> 100	> 100 µM	> 100 µM	> 100 µM	> 100		> 100	
NC(=O)NC(=O)Nc1ccc(Br)cc1								> 100		
NNC(=O)N/N=C(/CC1(O)C(=O)Nc2ccc(Br)cc21)c1ccccc1 (stereo not given)	> 100 µM	> 100		> 100 µM	38.5 µM	> 100 µM			> 100	
CC1(C)CCC2(C(=O)O)C(O)CC3(C)C(=CCC4C5(C)CCC(OC6OCC(O)C(O)C6OC6OCC(O)C(O)C6OC6OCC(O)C(OC7OC(CO)C(O)C(O)C7O)C6O)C(C)(C)C5CCC43C)C2C1 (stereo not given)								57.8		
O=C1C=C(Nc2cc(Cl)ccc2Cl)c2ccccc2C1=O	68.6 µM		76.2	> 100 µM		29.2 µM	70		> 100	
Nc1nc2c(ncn2C2OC(CO)C(O)C2O)c(=O)o1 (stereo not given)	> 100 µM	> 100	> 100	> 100 µM	> 100 µM	> 100 µM	> 100		> 100	
O=C(Nc1ccc(Nc2ccc(NC(=O)c3ccccc3)c3c2C(=O)c2ccccc2C3=O)c2c1C(=O)c1ccccc1C2=O)c1ccccc1	> 100 µM	> 100	> 100	> 100 µM		> 100 µM	> 100		> 100	
Cc1cc2c3c(nc4ccccc42)C(=O)c2cccnc2-c3n1								0.294		GI50 (MDA-N): 0.152 µM
Oc1ccc(I)c2cccnc12	14.1 µM	> 100		> 100 µM	> 100 µM	76.8 µM	47.7			
[pH]1p2[pH]p3p1p3[pH]2.c1cc[c]([Ge]([c]2ccccc2)[c]2ccccc2)cc1.c1cc[c]([Ge]([c]2ccccc2)[c]2ccccc2)cc1.c1cc[c]([Ge]([c]2ccccc2)[c]2ccccc2)cc1	32.5 µM	24.3	28.4	34 µM		28.6 µM	29		27.5	GI50 (DMS 273 small cell lung): 15.3 µM; GI50 (M19-MEL melanoma): 14.4 µM; GI50 (LXFL 529 NSCLC): 11.6 µM; GI50 (DMS 114 small cell lung): 12.9 µM; GI50 (HOP-18 NSCLC): 14.3 µM; GI50 (KM20L2 colon): 19.4 µM; GI50 (RXF-631 renal): 12.9 µM
CN(C)Cc1ccc(O)c(CN(C)C)n1								> 100		
O=C(CCl)N1CCN(c2ccccn2)CC1								42.4		
COC12OCCN(C)C1=CC(=O)C1N=NCC12 (stereo not given)	> 100 µM	> 100	> 100			> 100 µM	> 100		> 100	
c1ccc(-c2sc(-c3ccccc3)c3c2C(c2ccccc2)c2c(-c4ccccc4)sc(-c4ccccc4)c2C3c2ccccc2)cc1 (stereo not given)	> 100 µM	> 100	> 100	> 100 µM		> 100 µM				
